Experimental data published in patent US6075013A, “Modified low molecular weight heparin that inhibits clot associated coagulation factors” (Hamilton Civic Hospitals Research Development Inc., priority 1998, dated 2000).

B1: prothrombin fragment 2 (F2): prothrombin fragment 2, binds to exosite 2 of thrombin (protein, UniProt P00734 199-327, looked up)
Activation peptide fragment 2: SEGSSVNLSPPLEQCVPDRGQQYQGRLAVTTHGLPCLAWASAQAKALSKHQDFNSAVQLVENFCRNPDGDEEGVWCYVAGKPGDFGYCDLNYCEEAVEEETGDGLDEDSDRAIEGRTATSEYQTFFNPR
modifications: Activation peptide fragment 2

Assays:
washed plasma clot = assay: procoagulant activity of washed plasma clot in unanticoagulated whole blood; format: biochemical; conditions: washed plasma clot incubated in unanticoagulated whole blood
Excerpt: There is mounting evidence that both fibrin-bound thrombin and platelet-bound factor Xa contribute to the intense procoagulant activity of thrombi. […] Development of these agents requires an understanding of the mechanisms by which fibrin-bound IIa and platelet-bound factor Xa are protected from inactivation by heparin, LMWH and hirudin.

injured rabbit aorta = assay: rabbit arterial thrombosis prevention model; format: in vivo; conditions: over the doses tested
Description: The arterial thrombosis prevention model was modified so that both efficacy and safety could be assessed in the same animal. […] The four compounds were compared at three dosage levels. Each compound was administered as a bolus and infusion for 90 minutes. The doses listed in the following figures represent the bolus and infusion/60 minutes, administered for 90 minutes. The doses for heparin are shown as units/Kg, for LMWH and V21 as mg/Kg and for hirudin as mg/Kg. […] Thus, the specific activity of LMWH is 100 anti-Xa/mg and 30 anti-IIa units/mg. […] The anticoagulants were compared in the following dosages. Heparin 50 units/Kg and 75 unit/Kg; LMWH and V21 0.5, 1.0 and 1.5 mg/Kg; Hirudin 0.1/0.1, 0.1/0.2 and 0.1/0.3 mg/Kg.
FIG. 11 compares the efficacy of the four anticoagulants using cumulative time that the aorta remained patent over the 90 minutes of observation as the outcome measure of efficacy. One hundred percent accumulated patency reflects complete patency and 0% cumulative patency reflects immediate and sustained thrombotic occlusion.

[1] = target: thrombin (IIa) binding to fibrin (Homo sapiens, UniProt P00734); assay: effect on thrombin (IIa) binding to fibrin / fibrin monomer-sepharose; conditions: presence of 250 nM heparin
Description: FIGS. 1A and 1B illustrate the effects of varying heparin concentrations on thrombin (IIa) binding to fibrin (A) and on thrombin's apparent affinity for fibrin (B).
FIG. 3 illustrates the effect of hirugen (Hg), prothrombin fragment 2 (F2) or antibody against exosite 2 (Wab) on thrombin (IIa) binding to fibrin monomersepharose in the absence or presence of 250 nM heparin.
FIG. 9 illustrates the effect of unfractionated heparin (UFH) and a 6,000 Da heparin fraction (MLMWH) on thrombin (IIa) binding to fibrin.
When heparin is present, the amount of thrombin that binds to fibrin changes, as does the mode of thrombin interaction with fibrin.
The mode of thrombin binding also changes in the presence of heparin. Whereas thrombin binds to fibrin via exosite 1 in the absence of heparin, enhanced α-thrombin binding seen in the presence of heparin is mediated by exosite 2 because heparin augments the binding of γ-thrombin to the same extent as α-thrombin but has little effect on the binding of RA-thrombin (FIG. 2). Furthermore, excess α-thrombin bound in the presence of heparin is displaced with an antibody to exosite 2 or with prothrombin fragment 2 (F2) which, like heparin, also binds to exosite 2 (Arni, R. K., et al. (1993) Biochemistry 32:4727-4737). […]

Row | Molecule | block of the clot's ability to accelerate coagulation (washed plasma clot) | response of the model to the antithrombotic effects (injured rabbit aorta) | effect on heparin-dependent binding of thrombin to fibrin [1]
1 | TAP: tick anticoagulant peptide, a direct inhibitor of factor Xa (YNRLCIKPRDWIDECDSNEGGERAYFRNGKGGCDSFWICPEDHTGADYYSSYRDCFNACI; UniProt P17726 1-60, looked up) | cannot be blocked |  | 
2 | hirudin | cannot be blocked | very responsive | 
3 | B1 |  |  | displaced
